From patent publication US20220088016A1, “CANCER TREATMENT USING MULTI-TARGETED KINASE INHIBITOR IN COMBINATION OF PROTEIN KINASE BIOMARKERS” (ZHEJIANG CROWNMAB BIOTECH CO. LTD., priority 2019, published 2022)
pIC50: −log10 of the molar value.

Assays:
AAK1 = AAK1 (Homo sapiens, UniProt Q2M2I8); experiment: Kinase profiling; assay type: binding; details: read-out: % Ctrl @ 1000 nM
ACVR2B = ACVR2B (Homo sapiens, UniProt Q13705); experiment: Kinase profiling; assay type: binding; details: read-out: % Ctrl @ 1000 nM
BMPR2 = BMPR2 (Homo sapiens, UniProt Q13873); experiment: Kinase profiling; assay type: binding; details: read-out: % Ctrl @ 1000 nM
BRK = BRK (Homo sapiens, UniProt Q13882); experiment: Kinase profiling; assay type: binding; details: read-out: % Ctrl @ 1000 nM
Chain of BRK (Q13882 whole entry): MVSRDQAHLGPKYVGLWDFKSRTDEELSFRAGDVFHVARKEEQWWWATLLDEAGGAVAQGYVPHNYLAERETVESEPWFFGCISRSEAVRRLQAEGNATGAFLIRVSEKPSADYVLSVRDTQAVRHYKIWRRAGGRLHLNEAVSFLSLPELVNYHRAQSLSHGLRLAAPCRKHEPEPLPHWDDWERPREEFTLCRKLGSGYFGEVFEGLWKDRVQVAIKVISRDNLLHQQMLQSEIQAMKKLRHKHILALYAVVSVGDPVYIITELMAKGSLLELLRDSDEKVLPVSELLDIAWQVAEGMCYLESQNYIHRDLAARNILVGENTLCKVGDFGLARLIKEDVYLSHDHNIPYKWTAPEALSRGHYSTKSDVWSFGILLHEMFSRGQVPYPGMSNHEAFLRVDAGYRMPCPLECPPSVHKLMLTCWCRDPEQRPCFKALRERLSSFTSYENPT

CDK11 = CDK11 (Homo sapiens, UniProt Q9BWU1); experiment: Kinase profiling; assay type: binding; details: read-out: % Ctrl @ 1000 nM
CDK4-cyclinD3 = CDK4-cyclinD3 (Homo sapiens, UniProt P11802); experiment: Kinase profiling; assay type: binding; details: read-out: % Ctrl @ 1000 nM
CDK9 = CDK9 (Homo sapiens, UniProt P50750); experiment: Kinase profiling; assay type: binding; details: read-out: % Ctrl @ 1000 nM
Chain of CDK9 (P50750 whole entry): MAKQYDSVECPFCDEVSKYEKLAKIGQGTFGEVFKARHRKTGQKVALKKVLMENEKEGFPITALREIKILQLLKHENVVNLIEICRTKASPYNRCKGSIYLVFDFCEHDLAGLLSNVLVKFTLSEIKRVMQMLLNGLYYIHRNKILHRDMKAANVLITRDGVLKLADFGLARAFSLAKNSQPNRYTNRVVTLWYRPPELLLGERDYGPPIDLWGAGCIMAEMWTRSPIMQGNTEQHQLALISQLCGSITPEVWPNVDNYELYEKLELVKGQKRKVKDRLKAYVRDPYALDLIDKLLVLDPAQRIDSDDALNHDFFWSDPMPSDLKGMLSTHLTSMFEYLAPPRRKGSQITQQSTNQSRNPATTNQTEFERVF

CDKL1 = CDKL1 (Homo sapiens, UniProt Q00532); experiment: Kinase profiling; assay type: binding; details: read-out: % Ctrl @ 1000 nM
CSF1R = CSF1R (Homo sapiens, UniProt P07333); experiment: Kinase profiling; assay type: binding; details: read-out: % Ctrl @ 1000 nM
EGFR (G719C) = EGFR (G719C) (Homo sapiens, UniProt P00533, G719C); experiment: Kinase profiling; assay type: binding; details: read-out: % Ctrl @ 1000 nM
Chain of EGFR (G719C) (P00533 25-1210 G719C): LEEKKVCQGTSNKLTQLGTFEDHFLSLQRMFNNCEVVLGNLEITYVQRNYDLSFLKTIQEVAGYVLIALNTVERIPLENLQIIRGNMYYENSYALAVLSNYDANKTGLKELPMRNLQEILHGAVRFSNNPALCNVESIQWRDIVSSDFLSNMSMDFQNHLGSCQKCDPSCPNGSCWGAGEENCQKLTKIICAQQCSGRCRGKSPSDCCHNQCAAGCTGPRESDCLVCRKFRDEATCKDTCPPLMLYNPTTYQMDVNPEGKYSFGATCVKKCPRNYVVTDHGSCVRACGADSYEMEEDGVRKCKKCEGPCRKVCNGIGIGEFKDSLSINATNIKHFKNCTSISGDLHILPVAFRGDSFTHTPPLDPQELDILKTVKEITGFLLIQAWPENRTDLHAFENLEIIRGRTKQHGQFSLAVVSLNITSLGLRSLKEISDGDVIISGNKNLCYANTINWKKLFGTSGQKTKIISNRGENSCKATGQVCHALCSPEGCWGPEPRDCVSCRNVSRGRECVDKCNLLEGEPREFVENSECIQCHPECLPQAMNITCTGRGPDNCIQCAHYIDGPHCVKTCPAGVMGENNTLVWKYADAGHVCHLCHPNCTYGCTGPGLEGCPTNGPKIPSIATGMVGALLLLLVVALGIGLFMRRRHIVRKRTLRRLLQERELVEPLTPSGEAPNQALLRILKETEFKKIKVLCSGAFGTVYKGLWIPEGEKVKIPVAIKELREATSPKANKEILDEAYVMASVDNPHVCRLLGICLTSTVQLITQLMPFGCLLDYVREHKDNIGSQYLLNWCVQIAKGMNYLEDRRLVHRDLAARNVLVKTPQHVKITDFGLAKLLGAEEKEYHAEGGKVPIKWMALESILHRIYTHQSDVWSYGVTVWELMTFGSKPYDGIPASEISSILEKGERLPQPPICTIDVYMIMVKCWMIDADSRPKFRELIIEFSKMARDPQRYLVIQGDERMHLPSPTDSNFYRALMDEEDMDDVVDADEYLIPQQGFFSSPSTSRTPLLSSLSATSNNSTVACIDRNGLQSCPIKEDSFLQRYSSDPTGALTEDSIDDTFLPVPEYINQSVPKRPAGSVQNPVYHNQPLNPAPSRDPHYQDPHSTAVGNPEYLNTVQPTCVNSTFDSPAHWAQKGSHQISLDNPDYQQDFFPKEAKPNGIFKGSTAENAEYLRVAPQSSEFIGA

[1] = target: EGFR (L747-E749del, A750P) (Homo sapiens, UniProt P00533, A750P/DEL747-749); experiment: Kinase profiling; assay type: binding; details: read-out: % Ctrl @ 1000 nM
Chain of EGFR (L747-E749del, A750P) (P00533 with tags, fused parts or gaps DEL747-749/A750P): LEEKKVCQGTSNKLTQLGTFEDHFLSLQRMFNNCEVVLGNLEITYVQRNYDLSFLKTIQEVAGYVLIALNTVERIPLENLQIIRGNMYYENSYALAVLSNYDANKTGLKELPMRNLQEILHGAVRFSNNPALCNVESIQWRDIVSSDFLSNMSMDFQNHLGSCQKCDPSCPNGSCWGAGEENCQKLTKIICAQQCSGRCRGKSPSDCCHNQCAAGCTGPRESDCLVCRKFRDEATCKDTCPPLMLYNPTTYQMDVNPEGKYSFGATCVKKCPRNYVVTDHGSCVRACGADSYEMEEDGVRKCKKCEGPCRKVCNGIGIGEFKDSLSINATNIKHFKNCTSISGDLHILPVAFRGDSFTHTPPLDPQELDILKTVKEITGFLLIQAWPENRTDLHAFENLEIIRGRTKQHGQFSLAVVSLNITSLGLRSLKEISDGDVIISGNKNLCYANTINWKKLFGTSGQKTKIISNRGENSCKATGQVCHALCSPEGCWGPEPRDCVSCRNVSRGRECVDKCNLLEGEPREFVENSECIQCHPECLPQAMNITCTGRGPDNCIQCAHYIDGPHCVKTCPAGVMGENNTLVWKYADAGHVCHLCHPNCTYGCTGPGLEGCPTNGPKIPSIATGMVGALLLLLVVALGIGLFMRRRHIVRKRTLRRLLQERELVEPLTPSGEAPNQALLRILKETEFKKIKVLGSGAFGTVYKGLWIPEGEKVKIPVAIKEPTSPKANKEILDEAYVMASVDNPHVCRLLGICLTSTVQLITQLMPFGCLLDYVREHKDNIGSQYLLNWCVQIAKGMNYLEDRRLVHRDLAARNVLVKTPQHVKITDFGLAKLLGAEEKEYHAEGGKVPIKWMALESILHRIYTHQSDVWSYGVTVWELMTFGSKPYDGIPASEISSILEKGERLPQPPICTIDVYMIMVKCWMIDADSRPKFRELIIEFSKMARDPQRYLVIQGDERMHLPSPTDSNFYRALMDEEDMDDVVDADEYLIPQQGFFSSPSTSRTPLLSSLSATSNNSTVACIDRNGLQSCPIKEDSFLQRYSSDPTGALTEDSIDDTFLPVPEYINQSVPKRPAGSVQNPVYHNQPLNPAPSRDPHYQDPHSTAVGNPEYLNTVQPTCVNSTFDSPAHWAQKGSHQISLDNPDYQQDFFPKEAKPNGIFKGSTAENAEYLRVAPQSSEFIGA

FGFR3 (G697C) = FGFR3 (G697C) (Homo sapiens, UniProt P22607, G697C); experiment: Kinase profiling; assay type: binding; details: read-out: % Ctrl @ 1000 nM
Chain of FGFR3 (G697C) (P22607 23-806 G697C): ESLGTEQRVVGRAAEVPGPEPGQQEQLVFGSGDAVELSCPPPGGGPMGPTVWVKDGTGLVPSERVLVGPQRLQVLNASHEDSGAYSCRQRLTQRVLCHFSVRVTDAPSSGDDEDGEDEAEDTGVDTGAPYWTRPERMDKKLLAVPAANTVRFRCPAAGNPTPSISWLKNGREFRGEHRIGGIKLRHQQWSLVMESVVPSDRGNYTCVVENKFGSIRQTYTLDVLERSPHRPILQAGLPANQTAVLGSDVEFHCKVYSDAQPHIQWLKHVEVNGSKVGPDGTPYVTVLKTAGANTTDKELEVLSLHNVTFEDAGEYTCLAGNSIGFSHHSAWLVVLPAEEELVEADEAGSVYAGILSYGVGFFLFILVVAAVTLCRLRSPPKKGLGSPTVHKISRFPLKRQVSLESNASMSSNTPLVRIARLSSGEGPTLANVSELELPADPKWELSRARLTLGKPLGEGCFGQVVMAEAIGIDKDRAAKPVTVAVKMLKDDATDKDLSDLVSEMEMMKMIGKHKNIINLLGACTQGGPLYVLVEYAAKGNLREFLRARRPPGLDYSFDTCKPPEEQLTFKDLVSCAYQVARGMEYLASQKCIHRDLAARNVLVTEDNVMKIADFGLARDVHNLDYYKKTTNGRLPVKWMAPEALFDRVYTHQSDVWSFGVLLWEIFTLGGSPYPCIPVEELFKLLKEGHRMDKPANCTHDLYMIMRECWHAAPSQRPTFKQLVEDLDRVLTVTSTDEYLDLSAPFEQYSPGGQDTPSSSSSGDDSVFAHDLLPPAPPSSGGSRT

FGR = FGR (Homo sapiens, UniProt P09769); experiment: Kinase profiling; assay type: binding; details: read-out: % Ctrl @ 1000 nM
FLT3 (D835Y) = FLT3 (D835Y) (Homo sapiens, UniProt P36888, D835Y); experiment: Kinase profiling; assay type: binding; details: read-out: % Ctrl @ 1000 nM
GRK4 = GRK4 (Homo sapiens, UniProt P32298); experiment: Kinase profiling; assay type: binding; details: read-out: % Ctrl @ 1000 nM
GSK3B = GSK3B (Homo sapiens, UniProt P49841); experiment: Kinase profiling; assay type: binding; details: read-out: % Ctrl @ 1000 nM
HIPK4 = HIPK4 (Homo sapiens, UniProt Q8NE63); experiment: Kinase profiling; assay type: binding; details: read-out: % Ctrl @ 1000 nM
IKK-beta = IKK-beta (Homo sapiens, UniProt O14920); experiment: Kinase profiling; assay type: binding; details: read-out: % Ctrl @ 1000 nM
[2] = target: JAK2 (JH1domain-catalytic) (Homo sapiens, UniProt O60674); experiment: Kinase profiling; assay type: binding; details: read-out: % Ctrl @ 1000 nM
Chain of JAK2 (JH1domain-catalytic) (O60674 849-1124 limits assumed): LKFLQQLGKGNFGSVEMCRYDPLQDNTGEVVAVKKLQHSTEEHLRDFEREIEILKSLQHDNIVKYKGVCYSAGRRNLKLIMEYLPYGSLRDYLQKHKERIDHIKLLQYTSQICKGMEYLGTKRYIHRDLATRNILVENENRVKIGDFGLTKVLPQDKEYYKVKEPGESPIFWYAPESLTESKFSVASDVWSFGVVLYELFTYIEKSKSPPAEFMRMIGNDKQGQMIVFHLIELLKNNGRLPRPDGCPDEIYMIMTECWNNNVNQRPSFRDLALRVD

JNK2 = JNK2 (Homo sapiens, UniProt P45984); experiment: Kinase profiling; assay type: binding; details: read-out: % Ctrl @ 1000 nM
JNK3 = JNK3 (Homo sapiens, UniProt P53779); experiment: Kinase profiling; assay type: binding; details: read-out: % Ctrl @ 1000 nM
KIT (L576P) = KIT (L576P) (Homo sapiens, UniProt P10721, L576P); experiment: Kinase profiling; assay type: binding; details: read-out: % Ctrl @ 1000 nM
MAK = MAK (Homo sapiens, UniProt P20794); experiment: Kinase profiling; assay type: binding; details: read-out: % Ctrl @ 1000 nM
MLK3 = target: T1, MLK3 (Homo sapiens, UniProt Q16584); experiment: Kinase profiling; assay type: binding; details: read-out: % Ctrl @ 1000 nM
T1 construct: T7 phage fusion (stated for most kinases of the panel only); made in house; host or cells: T7 phage in E. coli (BL21-derived) or HEK-293 cells

MRCKB = target: T2, MRCKB (Homo sapiens, UniProt Q9Y5S2); experiment: Kinase profiling; assay type: binding; details: read-out: % Ctrl @ 1000 nM
T2 construct: T7 phage fusion (stated for most kinases of the panel only); made in house; host or cells: T7 phage in E. coli (BL21-derived) or HEK-293 cells

PAK7 = PAK7 (Homo sapiens, UniProt Q9P286); experiment: Kinase profiling; assay type: binding; details: read-out: % Ctrl @ 1000 nM
PCTK3 = PCTK3 (Homo sapiens, UniProt Q07002); experiment: Kinase profiling; assay type: binding; details: read-out: % Ctrl @ 1000 nM
Chain of PCTK3 (Q07002 whole entry): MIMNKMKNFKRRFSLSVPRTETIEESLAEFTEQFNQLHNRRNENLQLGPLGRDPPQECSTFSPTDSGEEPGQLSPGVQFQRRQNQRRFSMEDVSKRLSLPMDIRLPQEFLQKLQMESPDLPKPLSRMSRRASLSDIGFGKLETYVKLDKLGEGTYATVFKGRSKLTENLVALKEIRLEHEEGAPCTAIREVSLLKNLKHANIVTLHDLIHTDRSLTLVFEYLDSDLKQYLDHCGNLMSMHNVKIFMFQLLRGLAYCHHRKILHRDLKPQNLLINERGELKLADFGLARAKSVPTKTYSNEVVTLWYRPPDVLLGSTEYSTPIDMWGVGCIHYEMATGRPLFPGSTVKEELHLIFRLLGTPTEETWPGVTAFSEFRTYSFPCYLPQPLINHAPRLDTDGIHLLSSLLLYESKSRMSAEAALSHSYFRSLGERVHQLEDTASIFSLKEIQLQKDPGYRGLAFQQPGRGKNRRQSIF

PFCDPK1 (P.falciparum) = PFCDPK1 (P.falciparum) (Plasmodium falciparum, UniProt P62344); experiment: Kinase profiling; assay type: binding; details: read-out: % Ctrl @ 1000 nM
PIK3CA (H1047Y) = PIK3CA (H1047Y) (Homo sapiens, UniProt P42336, H1047Y); experiment: Kinase profiling; assay type: binding; details: read-out: % Ctrl @ 1000 nM
PIKFYVE = PIKFYVE (Homo sapiens, UniProt Q9Y2I7); experiment: Kinase profiling; assay type: binding; details: read-out: % Ctrl @ 1000 nM
PKN1 = PKN1 (Homo sapiens, UniProt Q16512); experiment: Kinase profiling; assay type: binding; details: read-out: % Ctrl @ 1000 nM
PRKR = PRKR (Homo sapiens, UniProt P19525); experiment: Kinase profiling; assay type: binding; details: read-out: % Ctrl @ 1000 nM
TSSK3 = TSSK3 (Homo sapiens, UniProt Q96PN8); experiment: Kinase profiling; assay type: binding; details: read-out: % Ctrl @ 1000 nM
Chain of TSSK3 (Q96PN8 whole entry): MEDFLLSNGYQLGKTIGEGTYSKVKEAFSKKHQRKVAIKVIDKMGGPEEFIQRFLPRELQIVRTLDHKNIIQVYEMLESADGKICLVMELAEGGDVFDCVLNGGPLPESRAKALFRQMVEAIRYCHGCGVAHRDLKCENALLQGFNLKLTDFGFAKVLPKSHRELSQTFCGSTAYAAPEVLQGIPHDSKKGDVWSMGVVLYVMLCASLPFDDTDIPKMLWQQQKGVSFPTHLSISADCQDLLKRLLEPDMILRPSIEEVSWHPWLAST

WEE2 = WEE2 (Homo sapiens, UniProt P0C1S8); experiment: Kinase profiling; assay type: binding; details: read-out: % Ctrl @ 1000 nM
BaF3 hCSF1R cell line = experiment: Proliferation of engineered BaF3 hCSF1R cell line (CTG assay); assay type: cell-based; details: Mus musculus, 72 h; engineered BaF3 hCSF1R; 3 days; CTG; read-out: IC50
Procedure: Two syngeneic cell lines M-NFS-60 and RAW264.7 and engineered BaF3 hCSFIR cell line were starved and then tested with CBT-102 and other test articles for 3 days in the temperature of 37° C., 5% CO2 and 95% humidity. The cell viability was then detected using CTG assay. The software of GraphPad Prism was used to calculate IC50.
CSF-1 dependent mouse myeloid M-NFS-60 cells were employed as target cells while a CSF-1 independent cell line Raw 264.7 was used as a negative control. In addition to CBT-102, the study also included 3 CSF-1R inhibitors: GW2580, BLZ945 and Pexidartinib.

SMILES: Cc1cc(Oc2cc(NC(=O)C3CC3)ncn2)ccc1NC(=O)Nc1ccc(Cl)c(C(F)(F)F)c1 [CBT-102]
- remaining activity at 1 µM (AAK1): 96%
- remaining activity at 1 µM (ACVR2B): 89%
- remaining activity at 1 µM (BMPR2): 82%
- remaining activity at 1 µM (BRK): 89%
- remaining activity at 1 µM (CDK11): 0%
- remaining activity at 1 µM (CDK4-cyclinD3): 100%
- remaining activity at 1 µM (CDK9): 46%
- remaining activity at 1 µM (CDKL1): 65%
- remaining activity at 1 µM (CSF1R): 0%
- remaining activity at 1 µM (EGFR (G719C)): 66%
- remaining activity at 1 µM [1]: 80%
- remaining activity at 1 µM (FGFR3 (G697C)): 100%
- remaining activity at 1 µM (FGR): 41%
- remaining activity at 1 µM (FLT3 (D835Y)): 61%
- remaining activity at 1 µM (GRK4): 100%
- remaining activity at 1 µM (GSK3B): 42%
- remaining activity at 1 µM (HIPK4): 11%
- remaining activity at 1 µM (IKK-beta): 92%
- remaining activity at 1 µM [2]: 100%
- remaining activity at 1 µM (JNK2): 31%
- remaining activity at 1 µM (JNK3): 85%
- remaining activity at 1 µM (KIT (L576P)): 0%
- remaining activity at 1 µM (MAK): 62%
- remaining activity at 1 µM (MLK3): 92%
- remaining activity at 1 µM (MRCKB): 100%
- remaining activity at 1 µM (PAK7): 91%
- remaining activity at 1 µM (PCTK3): 84%
- remaining activity at 1 µM (PFCDPK1 (P.falciparum)): 53%
- remaining activity at 1 µM (PIK3CA (H1047Y)): 100%
- remaining activity at 1 µM (PIKFYVE): 91%
- remaining activity at 1 µM (PKN1): 100%
- remaining activity at 1 µM (PRKR): 92%
- remaining activity at 1 µM (TSSK3): 100%
- remaining activity at 1 µM (WEE2): 97%
- pIC50 (BaF3 hCSF1R cell line): 6.23
